Experimental data: patent publication US20250241901A1, “ACTIVATION OF MNRR1 / CHCHD2 AS A THERAPEUTIC TARGET FOR MITOCHONDRIA ASSOCIATED DISORDERS” (Wayne State University, priority 2024, published 2025)

Columns and labels:
Format in all cases: cell-based, human
RBPJk = experiment: COX412-luciferase dual luciferase reporter assay in MELAS cybrid cells overexpressing MNRR1; conditions: MELAS cybrid cells overexpressing MNRR1, 0.5 μM
Excerpt: FIGS. 12A-12C: FIG. 12A: Dual luciferase reporter assay showing relative activation of MNRR1-luciferase levels in MELAS cybrid cells overexpressing varying proportions of empty vector (EV) and constitutively active RBPJk (RBP-CA). FIG. 12B: Dual luciferase reporter assay showing relative activation of MNRR1-luciferase levels in MELAS cybrid cells overexpressing an empty vector (EV) or constitutively active RBPJk (RBP-CA) and HIF2α. FIG. 12C: Dual luciferase reporter assay showing relative activation of COX412-luciferase levels in MELAS cybrid cells overexpressing an empty vector (EV), MNRR1, and MNRR1+Auranofin (0.5 μM).
Luciferase reporter assay: Luciferase assays were performed with the dual-luciferase reporter assay kit (Promega). Briefly, cells were lysed in 1× passive lysis buffer (Promega) and 25 μL of lysate was used for assay with a tube luminometer using an integration time of 10 s. Transfection efficiency was normalized with the co-transfected pRL-SV40 Renilla luciferase expression plasmid.

MELAS cybrid cells = experiment: Oxygen consumption of MELAS cybrid cells (Seahorse); conditions: 10 μM, 24 h
Description: FIGS. 7A-7E: MNRR1 activation by tizoxanide enhances mtDNA biogenesis and mitophagy to shift heteroplasmy in MELAS cells. FIG. 7A: Oxygen consumption measured from MELAS cybrid cells treated with vehicle (DMSO) or tizoxanide (10 μM) for 48 h (n=4 biological replicates, error bars represent SE). FIG. 7B: Haelll restriction enzyme digestion of a PCR-amplified fragment of mtDNA harboring the m.3243A>G mutation from DW7 cells treated with vehicle (DMSO) or tizoxanide (10 μM) for 144 h. […] FIG. 7C: Genes identified using qPCR of MELAS cybrid cells stably overexpressing EV or MNRR1. FIG. 7D: MtDNA levels are shown relative to nuclear DNA (nDNA) (GAPDH) (n=5 biological replicates, error bars represent SE). […]
FIGS. 11A-11F: RBPJk and HIF2α compete for binding at the ORE in the MNRR1 promoter to regulate transcription. […] FIG. 11E: Oxygen consumption measured from Control or HIFα knockdown (KD) MELAS cybrid cells. […] FIG. 11F: Left, Oxygen consumption measured from MELAS cybrid cells treated with vehicle (DMSO) or PT2385 (10 μM), an inhibitor of HIF2α function, for 24 h. […]
Intact cellular oxygen consumption and measurement of ATP: Cellular oxygen consumption was measured with a Seahorse XFe24 Bioanalyzer (Agilent). Cells were plated at a concentration of 3.5×10^4 per well a day prior to treatment and basal oxygen consumption was measured 48 h after treatments, as described. […]

MNRR1 = MNRR1 protein levels in MELAS cybrid cells (immunoblot); conditions: MELAS cybrid cells, 10 μM, 24 h
Description: FIGS. 6A-6C: FIG. 6A: Above, Chemical structures of nitazoxanide, its metabolites, and similar compounds. Abbreviations: P4, Phenyl-4-aminosalicylic acid; 4ABA, 4-Aminobenzanilide; 4ASA, 4-Amino salicylic acid; BA, Benzanilide; PBO, Phenyl benzoate; PSA, Phenyl salicylic acid; 2AN, 2-Amino 5-nitrothiazole. Below, Equal amounts of lysates of MELAS cells treated with Vehicle (DMSO) or the various compounds (10 μM) for 24 h were separated on an SDS-PAGE gel and probed for MNRR1 levels. Actin was probed as a loading control and numbers below represent an average and SD of 3 biological replicates. FIGS. 6B-6C: MNRR1 transcript levels are shown relative to 18S rRNA (n=4 biological replicates, error bars represent SE). In all figures, * indicates p<0.05, ** indicates p<0.005.
FIGS. 11A-11F: RBPJk and HIF2α compete for binding at the ORE in the MNRR1 promoter to regulate transcription. FIG. 11A: Chromatin immunoprecipitation-qPCR assessing binding of HIF2α to the endogenous MNRR1 promoter in MELAS cybrid cells with 0% (CL9) and 70% heteroplasmy (DW7). FIG. 11B: Dual luciferase reporter assay showing relative activation of MNRR1-luciferase levels in MELAS cybrid cells overexpressing varying proportions of constitutively active RBPJk (RBP-CA) and HIF2α. FIG. 11C: Dual luciferase reporter assay showing relative activation of MNRR1-luciferase levels in MELAS cybrid cells overexpressing the WT (FIG. 9A) or ΔORE (positions 47-53 in SEQ ID NO: 25 in FIG. 9C) promoter with EV (dotted line) or HIF2α. FIG. 11D: Equal amounts of Control or HIFα knockdown (KD) MELAS cybrid cell lysates were separated on an SDS-PAGE gel and probed for HIF2α and MNRR1 levels. Tubulin was probed as loading control. FIG. 11E: Oxygen consumption measured from Control or HIFα knockdown (KD) MELAS cybrid cells. (n=4 biological replicates, error bars represent SE). FIG. 11F: Left, Oxygen consumption measured from MELAS cybrid cells treated with vehicle (DMSO) or PT2385 (10 μM), an inhibitor of HIF2α function, for 24 h. Right, Equal amounts of MELAS cybrid cell lysates treated with vehicle (DMSO) or PT2385 (10 μM) for 24 h, separated on an SDS-PAGE gel, and probed for MNRR1 levels. GAPDH was probed as a loading control.
Immunoblotting: Immunoblotting was performed as described previously. Cell lysates for immunoblotting were prepared using RIPA buffer (Abcam, Waltham, MA) and included a protease and phosphatase inhibitor cocktail (Sigma, St. Louis, MO). […] The clear supernatants were transferred to new tubes and quantified using the Bradford reagent with BSA as standard (BioRad, Hercules. CA). […] For detection after immunoblotting, the SuperSignal™ West Pico PLUS substrate (ThermoFisher, Waltham, MA) was used to generate chemiluminescence signal, which was detected with X-Ray film (RadTech, Vassar, MI).

| SMILES | MNRR1 induced transcription (COX412-luciferase) (RBPJk) | OCR (MELAS cybrid cells) | MNRR1 protein (MNRR1) |
| --- | --- | --- | --- |
| CC(=O)OC[C@H]1O[C@@H]([S-])[C@H](OC(C)=O)[C@@H](OC(C)=O)[C@@H]1OC(C)=O.CCP(CC)CC.[Au+] [Auranonfin, Auranofin] | able to block the effects of MNRR1 induced transcription |  |  |
| CS(=O)(=O)c1ccc(Oc2cc(F)cc(C#N)c2)c2c1[C@H](O)C(F)(F)C2 [PT2385] |  | rebound increase | rebound increase |
